{
  "source": "ChEMBL document CHEMBL1145610",
  "about": "“N-Acetylhexosaminidase inhibitory properties of C-1 homologated GlcNAc- and GalNAc-thiazolines” (Bioorg Med Chem Lett, 2008)",
  "note": "pKi: −log10 of the molar value.",
  "data": [
    {"biological_target": "T1, B-N-acetylhexosaminidase (Streptomyces plicatus, UniProt O85361)", "T1 sequence (O85361 whole entry)": "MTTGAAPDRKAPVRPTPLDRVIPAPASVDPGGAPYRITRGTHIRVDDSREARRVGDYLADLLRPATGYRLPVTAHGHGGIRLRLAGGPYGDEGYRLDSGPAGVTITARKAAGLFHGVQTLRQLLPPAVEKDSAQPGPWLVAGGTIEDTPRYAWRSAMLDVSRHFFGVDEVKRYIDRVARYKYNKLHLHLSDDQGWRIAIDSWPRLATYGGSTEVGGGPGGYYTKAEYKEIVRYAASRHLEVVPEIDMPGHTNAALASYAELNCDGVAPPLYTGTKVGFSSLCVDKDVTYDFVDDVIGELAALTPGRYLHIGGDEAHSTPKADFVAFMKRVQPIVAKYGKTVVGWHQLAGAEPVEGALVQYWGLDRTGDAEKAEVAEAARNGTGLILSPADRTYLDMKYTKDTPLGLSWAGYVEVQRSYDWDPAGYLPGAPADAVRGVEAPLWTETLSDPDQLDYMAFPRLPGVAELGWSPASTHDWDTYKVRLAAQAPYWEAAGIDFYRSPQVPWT", "experiment": "Inhibition of Streptomyces plicatus N-acetyl-hexosaminidase", "values": [
      {"smiles": "CC1=N[C@@H]2[C@@H](O)[C@@H](O)[C@@H](CO)O[C@]2(CNC(=O)OC(C)(C)C)S1", "pKi": "< 2.70"},
      {"smiles": "CC(=O)NC1NC[C@H](CO)[C@H](O)[C@@H]1O", "note": "(single isomer, unassigned)", "pKi": 4.68},
      {"smiles": "CC1=N[C@@H]2[C@@H](O)[C@@H](O)[C@@H](CO)O[C@]2(CN)S1", "pKi": "< 2.70"},
      {"smiles": "CC1=N[C@@H]2[C@@H](O)[C@@H](O)[C@@H](CO)O[C@@H]2S1", "pKi": 4.00},
      {"smiles": "CC1=N[C@@H]2[C@@H](O)[C@H](O)[C@@H](CO)O[C@@H]2S1", "pKi": 4.70},
      {"smiles": "CC1=N[C@@H]2[C@@H](O)[C@H](O)[C@@H](CO)O[C@]2(C)S1", "pKi": 3.70},
      {"smiles": "Cc1nc2c(s1)O[C@H](CO)[C@H](O)[C@@H]2O", "pKi": 2.80}
    ]}
  ]
}
